Data: patent US7455976B2, “Method of measuring oxidized LDL/β2-glycoprotein I complex occurring in the living body” (priority 2002, dated 2008)

Tests used:
β2-GPI [1] = target: T1, β2-GPI (Homo sapiens, UniProt P02749); assay: ELISA using a plate coated with the ligand, β2-GPI binding detected by anti-β2-GPI antibody; settings: immobilized lipid; for β2-GPI-binding(OD) w/Cof-22, value in parentheses / β2-GPI-binding(OD) w/EY2C9, value in parentheses / β2-GPI-binding(OD) w/WB-CAL-1, value in parentheses: not explained (method: presence or absence of β2-GPI); for β2-GPI-binding(OD) w/Cof-22: detection with Cof-22; for β2-GPI-binding(OD) w/Cof-22 / β2-GPI-binding(OD) w/EY2C9 / β2-GPI-binding(OD) w/WB-CAL-1: upper value of the pair; for β2-GPI-binding(OD) w/EY2C9: detection with EY2C9; for β2-GPI-binding(OD) w/WB-CAL-1: detection with WB-CAL-1
T1 construct: β2-GPI was purified from plasma in healthy persons; from tissue; host or cells: pooled human plasma from healthy persons
T1 sequence (P02749 20-345): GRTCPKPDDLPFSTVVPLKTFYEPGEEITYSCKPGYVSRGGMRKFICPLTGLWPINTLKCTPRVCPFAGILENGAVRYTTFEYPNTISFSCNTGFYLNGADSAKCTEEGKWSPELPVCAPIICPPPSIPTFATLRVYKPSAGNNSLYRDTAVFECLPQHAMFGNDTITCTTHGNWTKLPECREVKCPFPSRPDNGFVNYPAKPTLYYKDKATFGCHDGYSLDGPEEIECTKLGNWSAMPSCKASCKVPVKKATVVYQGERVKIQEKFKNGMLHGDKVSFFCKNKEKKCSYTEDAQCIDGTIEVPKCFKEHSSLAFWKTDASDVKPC
Protocol: (7) ELISA for Detection of Anti-β2-GPI/Lipid IgG Antibody
CL (derived from bovine heart, manufactured by Sigma), oxLig-1 or 9-COOH-22KC (50 μg/ml ethanol, 50 μl/well) was adsorbed by evaporation onto a polystyrene plate (Immulon 1B; Dynex Technologies Inc.), and this plate was blocked with 1% BSA. In each well, the purified monoclonal autoantibody or serum sample (100-fold dilution) was incubated for 1 hour in the presence or absence of β2-GPI (25 μg/ml), and then HRP-labeled anti-mouse IgG or anti-human IgG or IgM was added to each well.
The subsequent step was carried out according to the method described in the “ELISA for detection of β2-GPI/oxLDL complex”. The optical density (OD) of each sample was corrected by the average OD of the blank wells, and its antibody titer was calculated by using the positive standard in the living body. When the antibody titer in a sample was more than 3 times as high as the standard deviation of the mean of plasma samples from 50 healthy persons, the sample was expressed as positive.

β2-GPI [2] = target: T1, β2-GPI; assay: Ligand blotting analysis on a TLC plate; assay type: binding; settings: detection by Cof-22 antibody and EY2C9 antibody; FIG. 1
Protocol: FIG. 1 is a graph showing ligand blotting analysis of two ω-carbdxylmutants (oxLig-1 and 9-COOH-22KC) of oxysterol ester. The ligand developed on a TLC plate was stained with I2 vapor (A), and the ligand blotting was conducted by using anti-β2-GPI antibody (Cof-22 (B) and EY2C9 (C)).
(5) Ligand Blotting Analysis on a Thin-Layer Chromatography (TLC) Plate
For conducting TLC ligand blotting, the lipid was spotted on a Polygram silica gel G plate (manufactured by Machery-Nagel) and developed with chloroform/methanol (8/1, v/v). The ligand blotting analysis was conducted according to a method described in [reference 7]. That is, the plate was dried and blocked with PBS containing 1% bovine serum albumin (BSA), and then the plate was incubated for 1 hour together with the β2-GPI and anti-β2-GPI antibodies (Cof-22 and EY2C9). Then, the plate was incubated for 1 hour with horseradish peroxidase (HRP)-labeled anti-mouse IgG antibody or anti-human IgM antibody. Between each step, the plate was washed sufficiently with PBS. Coloration was conducted using H2O2 and 4-methoxy-1-naphthol. In a TLC plate of control, the separated ligand was stained with I2 vapor.

| SMILES | β2-GPI-binding(OD) w/Cof-22, value in parentheses (β2-GPI [1]) | β2-GPI-binding(OD) w/EY2C9, value in parentheses (β2-GPI [1]) | β2-GPI-binding(OD) w/WB-CAL-1, value in parentheses (β2-GPI [1]) | β2-GPI-binding(OD) w/Cof-22 (β2-GPI [1]) | β2-GPI-binding(OD) w/EY2C9 (β2-GPI [1]) | β2-GPI-binding(OD) w/WB-CAL-1 (β2-GPI [1]) | β2-GPI binding in ligand blotting (β2-GPI [2]) |
| --- | --- | --- | --- | --- | --- | --- | --- |
| CC(C)CCC(=O)[C@@H](C)[C@H]1CC[C@H]2[C@@H]3CC=C4C[C@@H](OC(=O)CCCCCCCCC(=O)O)CC[C@]4(C)[C@H]3CC[C@]12C [9-COOH-22KC, 22-Ketocholesteryl-9-carboxynonanoate] | (0.067 +/− 0.013) OD | (0.046 +/− 0.008) OD | (0.031 +/− 0.011) OD | 0.217 +/− 0.016 OD | 0.130 +/− 0.024 OD | 0.063 +/− 0.004 OD |  |
| CC(C)CCC[C@@H](C)[C@H]1CC[C@H]2[C@@H]3C(=O)C=C4C[C@@H](OC(=O)CCCCCCCCC(=O)O)CC[C@]4(C)[C@H]3CC[C@]12C [oxLig-1, 7-ketocholesteryl-9-carboxynonanoate] | (0.041 +/− 0.001) OD | (0.013 +/− 0.001) OD | (0.013 +/− 0.004) OD | 1.194 +/− 0.099 OD | 0.878 +/− 0.031 OD | 0.441 +/− 0.007 OD | bound predominantly |
